Reference: article PMC11613437, “Prioritization of Eleven-Nineteen-Leukemia Inhibitors as Orally Available Drug Candidates for Acute Myeloid Leukemia” (Journal of Medicinal Chemistry, 2024)
Where “and” joins values, the source holds several entries; their conditions need not be identical. Equal values may be shown once.

Tests used:
[1] = system: MOLM-13 cells; assay: Cell toxicity assay (CCK-8), MOLM-13; assay type: cell-based
Experimental: (§1) Approximately 1 × 10^4 JURKAT, MOLM-13, MV4-11 and HEK293T cells in RPMI 1640 (no phenol red) (100 μL) were added to a 96-well plate and treated with DMSO or a compound at indicated concentrations for 72 h or 8 days. Cell viability was measured using the CCK-8 kit (Abcam, ab228554) according to the manufacturer’s instructions.

[2] = target: T1, NLuc-ENL YEATS (Homo sapiens, UniProt Q03111); assay: ENL-NanoBRET inhibitor competitive assay; assay type: cell-based; conditions: for IC50: HEK293T cells stably expressing NLuc-ENL YEATS, 1 μM Tracer 2, 2 h, mean ± SD, n = 3; for reduction in NanoBRET signal: concentrations up to 80 μM
T1 construct: DNA encoding the ENL YEATS domain (aa 1–148) was cloned into an NLuc containing plasmid; expressed in transfected cells
T1 sequence (Q03111 1-148): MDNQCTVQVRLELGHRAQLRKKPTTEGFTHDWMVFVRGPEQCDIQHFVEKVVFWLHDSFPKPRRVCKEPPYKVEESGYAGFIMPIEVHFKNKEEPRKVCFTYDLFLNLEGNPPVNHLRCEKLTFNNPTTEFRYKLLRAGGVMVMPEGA
Experimental: Approximately 1.8 × 10^4 HEK293T cells (100 μL) stably expressing NLuc-ENL YEATS were seeded into a white nonbinding 96-well assay plate and incubated overnight at 37 °C in a humidified 5% CO2 atmosphere. After removal of the medium, the cells were added with a tracer (with or without excess of unlabeled compound) in the Opti-MEM with 0.1% DMSO. After incubation at 37 °C for 2 h the assay plate was equilibrated at room temperature for 15 min. For BRET detection, the NanoGlo Substrate and the extracellular NanoLuc inhibitor (Promega, N2160) were diluted with Opti-MEM as described in protocol to afford detection solution. 50 μL of the detection solution was added per well and the plate was incubated for 3 min at room temperature. The donor emission was measured at 450 nm and the acceptor emission at 610 nm using a BioTek SYNERGY neo2 multimode reader. The BRET ratio was calculated according to the following formula: BRET ratio = [(acceptorsample/donorsample) – (acceptorno-tracer control/donorno-tracer control)] × 1000.
Sample procedures were followed for cell seeding as described in the previously described tracer affinity assay. After removal of the medium, the cells were added with a tracer in the medium (1.1 μM, 100 μL) and varied concentrations of a test compound in 0.1% DMSO (10 μL). The plate was thoroughly mixed on an orbital shaker for 15 s at 900 rpm. Then the cells were incubated at 37 °C, 5% CO2 for 2 h for BRET ratio detection as described previously.

[3] = In vitro metabolic stability assay in HLM; assay type: in vitro ADME, human; conditions: for half-life / half-life at 1 h: read-out: Liver Microsome t1/2; for parent compound remaining after 60 min incubation in HLM: in the presence of NADPH
Experimental: At 0, 5, 15, 30, 45, and 60 min, 200 μL acetonitrile (with the internal standard diclofenac as 10 μg/mL) was added to terminate the reaction, the remaining compound was analyzed by HPLC-MS/MS.

[4] = In vitro stability assay in human plasma; assay type: in vitro ADME; conditions: 37 °C; for Plasma % of parent compound remaining (after 2h incubation): 5 μM, mean ± SD, n = 3
Experimental: The in vitro stability analysis of a test compound was initiated by the addition of the test compound to 90 μL of prewarmed (37 °C) human plasma with a final concentration of 5 μM. All assays were performed in a plate shaker at 37 °C and conducted in triplicate. At 0, 5, 15, 30, 60, and 120 min, 400 μL acetonitrile (with the internal standard diclofenac as 10 μg/mL) was added to deproteinize the plasma and terminate the reaction, the remaining compound was then analyzed by HPLC-MS/MS.

[5] = Log D at pH 7.4 (chromatographic procedure); assay type: physicochemical; conditions: n-octanol / aqueous buffer pH 7.4, pH 7.4
Experimental: Log D at 7.4, which is a partition coefficient between n-octanol and aqueous buffer pH 7.4 of the compounds was measured on the chromatographic procedure whose condition was developed based on a published method.[35]

[6] = target: T2, ENL YEATS (Homo sapiens, UniProt Q03111); assay: AlphaScreen assay with biotinylated ENL-S1 peptide; conditions: inhibition of ENL YEATS binding to ENL-S1 peptide; mean ± SD, n = 3; read-out: Alpha IC50 (nM) for ENL YEATS
T2 construct: final concentrations of 100 nM His-ENL YEATS, 100 nM Biotin-ENL-S1
T2 sequence (Q03111 1-138 limits assumed): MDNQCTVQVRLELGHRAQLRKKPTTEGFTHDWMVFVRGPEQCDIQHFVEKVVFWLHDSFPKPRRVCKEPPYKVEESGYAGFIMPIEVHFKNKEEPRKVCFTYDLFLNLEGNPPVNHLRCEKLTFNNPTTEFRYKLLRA
Experimental: The AlphaScreen assay was carried out in 384-well plates. Manual assay setup was performed in a 40 μL reaction buffer (50 mM HEPES pH 7.4, 100 mM NaCl, 0.1% bovine serum albumin, and 0.05% CHAPS) with final concentrations of 100 nM His-ENL YEATS, 100 nM Biotin-ENL-S1, and 20 μg/mL of AlphaScreen donor and acceptor beads. The protein, peptide, and compounds were mixed and incubated for 1 h at room temperature and then incubated for 30 min in dark after adding the α beads. AlphaScreen-signals were detected by a multimode microplate reader (BioTeK Synergy Neo2) equipped with an Alpha-laser (PerkinElmer).

[7] = Cell toxicity assay (CCK-8), Jurkat; assay type: cell-based; conditions: human, Jurkat cells; 8 day treatment, n = 3; read-out: CC50 Jurkat (Cellular IC50, 8-days incubation)
Experimental: as §1

[8] = Cell toxicity assay (CCK-8), MV4-11; assay type: cell-based; conditions: human, MV4-11 cells, 8 day treatment, n = 3; read-out: CC50 MV4-11 (Cellular IC50, 8-days incubation)
Experimental: as §1

[9] = Cell toxicity assay (CCK-8), HEK293T; assay type: cell-based; conditions: human, HEK293T cells; 72 h (3-days) treatment, n = 3; read-out: CC50 HEK293T (Cellular IC50, 3-days incubation)
Experimental: as §1

[10] = Cell toxicity assay (CCK-8), MOLM-13; assay type: cell-based; conditions: human, MOLM-13 cells, 8 day treatment, n = 3; read-out: CC50 MOLM-13 (Cellular IC50, 8-days incubation)
Experimental: as §1

[11] = target: T3, ENL YEATS domain (Homo sapiens, UniProt Q03111); assay: Biolayer interferometry (BLI); assay type: binding; conditions: biotinylated ENL YEATS on SSA biosensors, 1:1 model
T3 construct: Biotinylated-ENL YEATS was immobilized onto SSA biosensors; biotin (biotinylated)
T3 sequence (Q03111 1-138 limits assumed): T2 sequence (Q03111 1-138 limits assumed)
Experimental: Superstreptavidin biosensors were first incubated in an assay buffer (20 mM Tris, pH 7.8, 300 mM NaCl, 0.05% Tween 20, 0.1% DMSO) for 15 min. Sensors were coated with 40–60 μg/mL of biotinylated ENL for 15 min at room temperature. Inhibitors were serially diluted across a 96-well plate in a volume of 200 μL. Association of samples to either ENL- or uncoated reference sensors was measured over 300 s and dissociation over 300 s with baseline measurements (buffer only) for 300 s. All assays were run with continuous 1000 rpm shaking. Data were analyzed using the OctetRED data analysis software with reference subtraction in which reference uncoated sensors and reference samples were subtracted. Then, global kinetic fit was performed for all sonogram curves with a 1:1 model to get KD values.

[12] = system: MV4-11 cells; assay: Anti-proliferation assay, MV4-11; assay type: cell-based; conditions: 1 μM, approximately 2 weeks
Experimental: (§2) Cell proliferation assays were carried out in a 96-well tissue culture plate at 2 × 10^4 cells/well for all cell lines except in 200 μL with a compound added as 1:1000 dilution of DMSO stocks in triplicate. Culture density was determined every 3–4 days using the countess automated cell counter, after which 2 × 10^4 live cells were reseeded in fresh media and compound. The cumulative cell count was achieved by back calculation.

[13] = system: MOLM-13 cells; assay: Anti-proliferation assay, MOLM-13; assay type: cell-based; conditions: 1 μM, approximately 2 weeks
Experimental: as §2

[14] = human, human liver microsomes, pH 7.4, HLM 0.5 mg/mL, NADPH 1 mM, mean ± SD, n = 3, read-out: Liver Microsome CLint, pred
[15] = human, human liver microsomes, pH 7.4, HLM 0.5 mg/mL, NADPH 1 mM, mean ± SD, n = 3

Compound | IC50 [2] | Plasma % of parent compound remaining (after 2h incubation) [4] | chromatographic logD [5] | CLint scaled at 1 h [3, 14] | half-life at 1 h [3, 15] | also measured
CC(C)(C)C1CCN1Cc1ccc(CNC(=O)c2ccc3nncn3c2)cc1 (centres unmarked) [inhibitor 14] | > 20000 nM | 97.60 ± 0.74% | 0.42 |  |  | inhibition at 64 µM ([1]; Homo sapiens, MOLM-13, 64 μM, 72-h treatment, Figure S8f, read-out: growth inhibition in MOLM-13 cells): ~30%; CLint scaled [3, 14]: 2.42 ± 0.14 mL/min/kg; half-life [3, 15]: 12 ± 0.741 h
CC(C)[C@H]1CCN1Cc1ccc(CNC(=O)c2ccc3nncn3c2)cc1 [13 (R), (R)-N-(4-((2-Isopropylazetidin-1-yl)methyl)benzyl)-[1,2,4]triazolo[4,3-a]pyridine-6-carboxamide] |  |  |  |  |  | IC50 [6]: 2260 nM
CC(C)[C@@H]1CCN1Cc1ccc(CNC(=O)c2ccc3nncn3c2)cc1 [13 (S), (S)-N-(4-((2-isopropylazetidin-1-yl)methyl)benzyl)-[1,2,4]triazolo[4,3-a]pyridine-6-carboxamide] |  |  |  |  |  | IC50 [6]: 970 nM
CN(C)Cc1ccc(CNC(=O)c2ccc3nncn3c2)cc1 [inhibitor 7] | > 80000 nM |  | 0.28 |  |  | 
O=C(NCc1ccc(CN2CCOCC2)cc1)c1ccc2nncn2c1 [inhibitor 9] | > 80000 nM |  | -0.1 |  |  | reduction in NanoBRET signal [2]: minimal reductions in NanoBRET signal
CSc1ccc(CNC(=O)c2ccc3nncn3c2)cc1 [inhibitor 1] | 1260 nM | 84.81 ± 6.84% | 1.19 | 22.2 ± 4.76 mL/min/kg | 1.34 ± 0.292 h | parent compound remaining after 60 min incubation in HLM [3]: about 60%; degradation after 2 h incubation in human plasma [4]: approximately 15%
O=C(NCc1cccc(CN2CCC2)c1)c1ccc2nncn2c1 [inhibitor 15] | 3260 nM |  | 0.29 | 6.93 mL/min/kg | 4.23 ± 0.603 h | parent compound remaining after 60 min incubation in HLM [3]: over 90%

Further lines, with some results ahead:

IC50 [2] | Plasma % of parent compound remaining (after 2h incubation) [4] | chromatographic logD [5] | CLint scaled at 1 h [3, 14] | half-life at 1 h [3, 15] | Compound | also measured
2360 nM | 82.54 ± 6.09% | 0.13 | 3.51 mL/min/kg | 8.29 ± 0.671 h | O=C(Nc1cc2[nH]c(CN3CCC3C3CC3)cc2cn1)c1ccc2nncn2c1 [YR-D-121] | IC50 at 8 days [7]: > 64000 nM; IC50 at 8 days [8]: 14200 nM; IC50 at 72 h [9]: > 64000 nM; IC50 at 8 days [10]: 6960 nM; parent compound remaining after 60 min incubation in HLM [3]: over 90%; degradation after 2 h incubation in human plasma [4]: approximately 15%; Kd [11]: 1340 nM
1340 nM | 85.32 ± 3.24% | -0.07 | 21.6 ± 1.89 mL/min/kg | 1.35 ± 0.117 h | CC1CCN1Cc1ccc(CNC(=O)c2ccc3nncn3c2)cc1 (centres unmarked) [inhibitor 12] | parent compound remaining after 60 min incubation in HLM [3]: about 60%; degradation after 2 h incubation in human plasma [4]: approximately 15%
1480 nM | 90.77% and 90.77 ± 4.67% | 0.82 | 8.69 ± 0.01 mL/min/kg | 3.37 ± 0.421 h | CC(C)C1CCN1Cc1cc2cnc(NC(=O)c3ccc4nncn4c3)cc2[nH]1 (centres unmarked) [SR-C-107] | IC50 at 8 days [7]: > 64000 nM; inhibition of MV4-11 cell proliferation [12]: strong inhibition of cell proliferation; IC50 at 72 h [9]: > 64000 nM; inhibition of MOLM-13 cell proliferation [13]: strong inhibition of cell proliferation; IC50 ([1]; 8 day treatment, n = 3, read-out: CC50 MOLM-13 (Cellular IC50, 8-days incubation)): 2570 ± 280 nM; IC50 at 8 days [10]: < 4000 nM; IC50 [6]: 121 ± 28 nM; Kd [11]: 565 nM
 | 88.42 ± 4.98% | 0.96 | 9.95 mL/min/kg | 2.92 ± 0.22 h | O=C(NCc1ccc(CNc2ncc(F)cn2)cc1)c1ccc2nncn2c1 [inhibitor 24] | degradation after 2 h incubation in human plasma [4]: approximately 15%
5670 nM | 89.11 ± 6.07% | 0.89 | 10.9 mL/min/kg | 2.76 ± 0.639 h | CC(C)[C@@H]1CCN1Cc1cc2cnc(NC(=O)c3ccc4nncn4c3)cc2[nH]1 [SR-C-107 (S), (S)-N-(2-((2-Isopropylazetidin-1-yl)methyl)-1H-pyrrolo[3,2-c]pyridin-6-yl)-[1,2,4]triazolo[4,3-a]pyridine-6-carboxamide] | IC50 [6]: 1380 nM; half-life [3, 15]: 2.75 h
 |  | 0.17 |  |  | O=C(NCc1ccc(CN2CCC2)cc1)c1ccc2nncn2c1 [inhibitor 11] | reduction in NanoBRET signal [2]: minimal reductions in NanoBRET signal
> 80000 nM |  | 0.11 |  |  | O=C(NCc1ccc(CN2CCCCC2)cc1)c1ccc2nncn2c1 [inhibitor 8] | reduction in NanoBRET signal [2]: minimal reductions in NanoBRET signal
